Experimental data from publication PMC12446476 (Nature Communications, 2025).
In brackets after ≈: the same amount, converted by molar mass. Read-outs that look alike come from different tables or passages of the source.

Test system: N. gonorrhoeae
Assay: MIC determination, Etest
Type: cell-based, Neisseria gonorrhoeae
Details: for MIC: Neisseria gonorrhoeae
Description: The 2024 WHO N. gonorrhoeae reference strains were used for quality control. Only whole MIC doubling dilutions are reported. Clinical breakpoints or the epidemiological cutoff (ECOFF, to indicate azithromycin resistance) from EUCAST (v14.0, https://www.eucast.org/clinical_breakpoints) were used to classify isolates as antimicrobial susceptible or resistant. […] Two times the standard inoculum defined by CLSI was used to establish consistent growth in untreated control samples for some strains. In vitro time-kill assays were performed according to CLSI guidelines[65] using Columbia Broth (BD Difco) supplemented with 1% IsoVitaleX Enrichment (BD). Viable bacterial counts were generated by plating 10-fold serially diluted samples on GC agar plates containing 1% IsoVitaleX Enrichment (BD).

MIC (WHO F, Etest, read-out: MIC): 16 µg/mL (≈ 48.1 µM)
MIC (WHO H, Etest, read-out: MIC): 8 µg/mL (≈ 24.1 µM)
MIC (WHO K, Etest, read-out: MIC): 16 µg/mL (≈ 48.1 µM)
MIC (WHO L, Etest, read-out: MIC): 16 µg/mL (≈ 48.1 µM)
MIC (WHO M, Etest, read-out: MIC): 16 µg/mL (≈ 48.1 µM)
MIC (WHO O, Etest, read-out: MIC): > 1020 µg/mL
MIC (WHO P, Etest, read-out: MIC): 8 µg/mL (≈ 24.1 µM)
MIC (WHO Q, Etest, read-out: MIC): 8 µg/mL (≈ 24.1 µM)
MIC (WHO R, Etest, read-out: MIC): 8 µg/mL (≈ 24.1 µM)
MIC (WHO S2, Etest, read-out: MIC): 16 µg/mL (≈ 48.1 µM)
MIC (WHO U, Etest, read-out: MIC): 8 µg/mL (≈ 24.1 µM)
MIC (WHO V, Etest, read-out: MIC): 16 µg/mL (≈ 48.1 µM)
MIC (WHO X, Etest, read-out: MIC): 16 µg/mL (≈ 48.1 µM)
MIC (WHO Y, Etest, read-out: MIC): 16 µg/mL (≈ 48.1 µM)
MIC (WHO Z, Etest, read-out: MIC): 16 µg/mL (≈ 48.1 µM)
MIC (comparator antibiotics, clinical N. gonorrhoeae isolate 1, Sweden 2023, read-out: Minimum inhibitory concentration): 16 µg/mL (≈ 48.1 µM)
MIC (comparator antibiotics, clinical N. gonorrhoeae isolate 2, Sweden 2023, read-out: Minimum inhibitory concentration): 8 µg/mL (≈ 24.1 µM)
MIC (comparator antibiotics, clinical N. gonorrhoeae isolate 3, Sweden 2023, read-out: Minimum inhibitory concentration): 16 µg/mL (≈ 48.1 µM)
MIC (comparator antibiotics, clinical N. gonorrhoeae isolate 4, Sweden 2023, read-out: Minimum inhibitory concentration): 16 µg/mL (≈ 48.1 µM)
MIC (comparator antibiotics, clinical N. gonorrhoeae isolate 5, Sweden 2023, read-out: Minimum inhibitory concentration): 8 µg/mL (≈ 24.1 µM)
MIC (comparator antibiotics, clinical N. gonorrhoeae isolate 6, Sweden 2023, read-out: Minimum inhibitory concentration): 8 µg/mL (≈ 24.1 µM)
MIC (comparator antibiotics, clinical N. gonorrhoeae isolate 7, Sweden 2023, read-out: Minimum inhibitory concentration): 16 µg/mL (≈ 48.1 µM)
MIC (comparator antibiotics, clinical N. gonorrhoeae isolate 8, Sweden 2023, read-out: Minimum inhibitory concentration): 16 µg/mL (≈ 48.1 µM)
MIC (comparator antibiotics, clinical N. gonorrhoeae isolate 9, Sweden 2023, read-out: Minimum inhibitory concentration): 8 µg/mL (≈ 24.1 µM)
MIC (comparator antibiotics, clinical N. gonorrhoeae isolate 10, Sweden 2023, read-out: Minimum inhibitory concentration): 16 µg/mL (≈ 48.1 µM)
MIC (comparator antibiotics, clinical N. gonorrhoeae isolate 11, Sweden 2023, read-out: Minimum inhibitory concentration): 16 µg/mL (≈ 48.1 µM)
MIC (comparator antibiotics, clinical N. gonorrhoeae isolate 12, Sweden 2023, read-out: Minimum inhibitory concentration): 16 µg/mL (≈ 48.1 µM)
MIC (comparator antibiotics, clinical N. gonorrhoeae isolate 13, Sweden 2023, read-out: Minimum inhibitory concentration): 16 µg/mL (≈ 48.1 µM)
MIC (comparator antibiotics, clinical N. gonorrhoeae isolate 14, Sweden 2023, read-out: Minimum inhibitory concentration): 16 µg/mL (≈ 48.1 µM)
MIC (comparator antibiotics, clinical N. gonorrhoeae isolate 15, Sweden 2023, read-out: Minimum inhibitory concentration): 16 µg/mL (≈ 48.1 µM)
MIC (comparator antibiotics, clinical N. gonorrhoeae isolate 16, Sweden 2023, read-out: Minimum inhibitory concentration): 8 µg/mL (≈ 24.1 µM)
MIC (comparator antibiotics, clinical N. gonorrhoeae isolate 17, Sweden 2023, read-out: Minimum inhibitory concentration): 8 µg/mL (≈ 24.1 µM)
MIC (comparator antibiotics, clinical N. gonorrhoeae isolate 18, Sweden 2023, read-out: Minimum inhibitory concentration): 16 µg/mL (≈ 48.1 µM)
MIC (comparator antibiotics, clinical N. gonorrhoeae isolate 19, Sweden 2023, read-out: Minimum inhibitory concentration): 16 µg/mL (≈ 48.1 µM)
MIC (comparator antibiotics, clinical N. gonorrhoeae isolate 20, Sweden 2023, read-out: Minimum inhibitory concentration): 16 µg/mL (≈ 48.1 µM)
MIC (comparator antibiotics, clinical N. gonorrhoeae isolate 21, Sweden 2023, read-out: Minimum inhibitory concentration): 16 µg/mL (≈ 48.1 µM)
MIC (comparator antibiotics, clinical N. gonorrhoeae isolate 22, Sweden 2023, read-out: Minimum inhibitory concentration): 8 µg/mL (≈ 24.1 µM)
MIC (comparator antibiotics, clinical N. gonorrhoeae isolate 23, Sweden 2023, read-out: Minimum inhibitory concentration): 8 µg/mL (≈ 24.1 µM)
MIC (comparator antibiotics, clinical N. gonorrhoeae isolate 24, Sweden 2023, read-out: Minimum inhibitory concentration): 16 µg/mL (≈ 48.1 µM)
MIC (comparator antibiotics, clinical N. gonorrhoeae isolate 25, Sweden 2023, read-out: Minimum inhibitory concentration): 8 µg/mL (≈ 24.1 µM)
MIC (comparator antibiotics, clinical N. gonorrhoeae isolate 26, Sweden 2023, read-out: Minimum inhibitory concentration): 16 µg/mL (≈ 48.1 µM)
MIC (comparator antibiotics, clinical N. gonorrhoeae isolate 27, Sweden 2023, read-out: Minimum inhibitory concentration): 8 µg/mL (≈ 24.1 µM)
MIC (comparator antibiotics, clinical N. gonorrhoeae isolate 28, Sweden 2023, read-out: Minimum inhibitory concentration): 8 µg/mL (≈ 24.1 µM)
MIC (comparator antibiotics, clinical N. gonorrhoeae isolate 29, Sweden 2023, read-out: Minimum inhibitory concentration): 16 µg/mL (≈ 48.1 µM)
MIC (comparator antibiotics, clinical N. gonorrhoeae isolate 30, Sweden 2023, read-out: Minimum inhibitory concentration): 8 µg/mL (≈ 24.1 µM)
MIC (comparator antibiotics, clinical N. gonorrhoeae isolate 31, Sweden 2023, read-out: Minimum inhibitory concentration): 8 µg/mL (≈ 24.1 µM)
MIC (comparator antibiotics, clinical N. gonorrhoeae isolate 32, Sweden 2023, read-out: Minimum inhibitory concentration): 8 µg/mL (≈ 24.1 µM)
MIC (comparator antibiotics, clinical N. gonorrhoeae isolate 33, Sweden 2023, read-out: Minimum inhibitory concentration): 8 µg/mL (≈ 24.1 µM)
MIC (comparator antibiotics, clinical N. gonorrhoeae isolate 34, Sweden 2023, read-out: Minimum inhibitory concentration): 8 µg/mL (≈ 24.1 µM)
MIC (comparator antibiotics, clinical N. gonorrhoeae isolate 35, Sweden 2023, read-out: Minimum inhibitory concentration): 16 µg/mL (≈ 48.1 µM)
MIC (comparator antibiotics, clinical N. gonorrhoeae isolate 36, Sweden 2023, read-out: Minimum inhibitory concentration): 8 µg/mL (≈ 24.1 µM)
MIC (comparator antibiotics, clinical N. gonorrhoeae isolate 37, Sweden 2023, read-out: Minimum inhibitory concentration): 8 µg/mL (≈ 24.1 µM)
MIC (comparator antibiotics, clinical N. gonorrhoeae isolate 38, Sweden 2023, read-out: Minimum inhibitory concentration): 8 µg/mL (≈ 24.1 µM)
MIC (comparator antibiotics, clinical N. gonorrhoeae isolate 39, Sweden 2023, read-out: Minimum inhibitory concentration): 16 µg/mL (≈ 48.1 µM)
MIC (comparator antibiotics, clinical N. gonorrhoeae isolate 40, Sweden 2023, read-out: Minimum inhibitory concentration): 8 µg/mL (≈ 24.1 µM)
MIC (comparator antibiotics, clinical N. gonorrhoeae isolate 41, Sweden 2023, read-out: Minimum inhibitory concentration): 16 µg/mL (≈ 48.1 µM)
MIC (comparator antibiotics, clinical N. gonorrhoeae isolate 42, Sweden 2023, read-out: Minimum inhibitory concentration): 8 µg/mL (≈ 24.1 µM)
MIC (comparator antibiotics, clinical N. gonorrhoeae isolate 43, Sweden 2023, read-out: Minimum inhibitory concentration): 16 µg/mL (≈ 48.1 µM)
MIC (comparator antibiotics, clinical N. gonorrhoeae isolate 44, Sweden 2023, read-out: Minimum inhibitory concentration): 16 µg/mL (≈ 48.1 µM)
MIC (comparator antibiotics, clinical N. gonorrhoeae isolate 45, Sweden 2023, read-out: Minimum inhibitory concentration): 16 µg/mL (≈ 48.1 µM)
MIC (comparator antibiotics, clinical N. gonorrhoeae isolate 46, Sweden 2023, read-out: Minimum inhibitory concentration): 8 µg/mL (≈ 24.1 µM)
MIC (comparator antibiotics, clinical N. gonorrhoeae isolate 47, Sweden 2023, read-out: Minimum inhibitory concentration): 16 µg/mL (≈ 48.1 µM)
MIC (comparator antibiotics, clinical N. gonorrhoeae isolate 48, Sweden 2023, read-out: Minimum inhibitory concentration): 8 µg/mL (≈ 24.1 µM)
MIC (comparator antibiotics, clinical N. gonorrhoeae isolate 49, Sweden 2023, read-out: Minimum inhibitory concentration): 16 µg/mL (≈ 48.1 µM)
Structure (SMILES): CN[C@@H]1[C@H](O)[C@H](NC)[C@H]2O[C@@]3(O)C(=O)C[C@@H](C)O[C@H]3O[C@@H]2[C@H]1O [Spectinomycin]
susceptibility of all isolates (100 contemporary clinical N. gonorrhoeae isolates, EUCAST): susceptible
